Measured values taken from article PMC12682947, “Identification of New KCNT1‐Epilepsy Drugs by In Silico, Cell, and Drosophila Modeling” (Annals of Neurology, 2025).
Counter-ions that a name gives are not always drawn. Like-named read-outs stand apart in the source and are kept apart here.

Molecular target: T1, WT/Y796H KCNT1 channels (Homo sapiens, UniProt Q5JUK3, Y796H)
T1 construct: T2A self-cleaving motif ([…]) following the first subunit (C); expressed in transfected cells; host or cells: CHO cells
T1 sequence (Q5JUK3 1-1230): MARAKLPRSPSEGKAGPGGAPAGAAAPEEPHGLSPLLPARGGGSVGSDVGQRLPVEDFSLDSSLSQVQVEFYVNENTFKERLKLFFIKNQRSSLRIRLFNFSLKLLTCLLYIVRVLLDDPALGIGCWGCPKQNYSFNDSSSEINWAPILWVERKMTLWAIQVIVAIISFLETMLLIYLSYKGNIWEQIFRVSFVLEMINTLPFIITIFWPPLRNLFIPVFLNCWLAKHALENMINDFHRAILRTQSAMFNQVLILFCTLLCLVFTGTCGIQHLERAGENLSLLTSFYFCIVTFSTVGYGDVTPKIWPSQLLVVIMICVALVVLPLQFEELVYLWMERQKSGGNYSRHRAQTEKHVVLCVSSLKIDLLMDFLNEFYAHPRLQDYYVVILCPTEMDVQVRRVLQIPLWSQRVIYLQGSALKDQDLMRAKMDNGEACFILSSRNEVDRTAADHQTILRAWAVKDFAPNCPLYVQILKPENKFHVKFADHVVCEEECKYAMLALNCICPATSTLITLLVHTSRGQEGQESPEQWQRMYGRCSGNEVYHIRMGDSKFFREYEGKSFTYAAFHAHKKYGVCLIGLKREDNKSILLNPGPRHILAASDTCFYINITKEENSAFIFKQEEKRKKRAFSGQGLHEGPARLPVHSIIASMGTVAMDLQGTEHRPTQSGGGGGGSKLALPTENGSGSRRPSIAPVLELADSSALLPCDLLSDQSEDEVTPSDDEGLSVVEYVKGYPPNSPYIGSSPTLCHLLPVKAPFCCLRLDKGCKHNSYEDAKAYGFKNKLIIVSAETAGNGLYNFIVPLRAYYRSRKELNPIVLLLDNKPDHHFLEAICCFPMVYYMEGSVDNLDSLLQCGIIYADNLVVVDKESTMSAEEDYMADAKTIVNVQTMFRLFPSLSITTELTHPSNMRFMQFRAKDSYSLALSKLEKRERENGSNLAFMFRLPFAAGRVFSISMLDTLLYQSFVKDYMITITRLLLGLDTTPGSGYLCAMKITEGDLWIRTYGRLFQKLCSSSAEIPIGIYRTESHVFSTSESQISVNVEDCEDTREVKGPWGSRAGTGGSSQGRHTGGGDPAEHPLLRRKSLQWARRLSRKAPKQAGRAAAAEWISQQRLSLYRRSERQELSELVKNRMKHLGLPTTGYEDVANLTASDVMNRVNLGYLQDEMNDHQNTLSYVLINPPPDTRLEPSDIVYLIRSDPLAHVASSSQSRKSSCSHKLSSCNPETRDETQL
T1 sequence (Q5JUK3 2-1230 Y796H limits assumed): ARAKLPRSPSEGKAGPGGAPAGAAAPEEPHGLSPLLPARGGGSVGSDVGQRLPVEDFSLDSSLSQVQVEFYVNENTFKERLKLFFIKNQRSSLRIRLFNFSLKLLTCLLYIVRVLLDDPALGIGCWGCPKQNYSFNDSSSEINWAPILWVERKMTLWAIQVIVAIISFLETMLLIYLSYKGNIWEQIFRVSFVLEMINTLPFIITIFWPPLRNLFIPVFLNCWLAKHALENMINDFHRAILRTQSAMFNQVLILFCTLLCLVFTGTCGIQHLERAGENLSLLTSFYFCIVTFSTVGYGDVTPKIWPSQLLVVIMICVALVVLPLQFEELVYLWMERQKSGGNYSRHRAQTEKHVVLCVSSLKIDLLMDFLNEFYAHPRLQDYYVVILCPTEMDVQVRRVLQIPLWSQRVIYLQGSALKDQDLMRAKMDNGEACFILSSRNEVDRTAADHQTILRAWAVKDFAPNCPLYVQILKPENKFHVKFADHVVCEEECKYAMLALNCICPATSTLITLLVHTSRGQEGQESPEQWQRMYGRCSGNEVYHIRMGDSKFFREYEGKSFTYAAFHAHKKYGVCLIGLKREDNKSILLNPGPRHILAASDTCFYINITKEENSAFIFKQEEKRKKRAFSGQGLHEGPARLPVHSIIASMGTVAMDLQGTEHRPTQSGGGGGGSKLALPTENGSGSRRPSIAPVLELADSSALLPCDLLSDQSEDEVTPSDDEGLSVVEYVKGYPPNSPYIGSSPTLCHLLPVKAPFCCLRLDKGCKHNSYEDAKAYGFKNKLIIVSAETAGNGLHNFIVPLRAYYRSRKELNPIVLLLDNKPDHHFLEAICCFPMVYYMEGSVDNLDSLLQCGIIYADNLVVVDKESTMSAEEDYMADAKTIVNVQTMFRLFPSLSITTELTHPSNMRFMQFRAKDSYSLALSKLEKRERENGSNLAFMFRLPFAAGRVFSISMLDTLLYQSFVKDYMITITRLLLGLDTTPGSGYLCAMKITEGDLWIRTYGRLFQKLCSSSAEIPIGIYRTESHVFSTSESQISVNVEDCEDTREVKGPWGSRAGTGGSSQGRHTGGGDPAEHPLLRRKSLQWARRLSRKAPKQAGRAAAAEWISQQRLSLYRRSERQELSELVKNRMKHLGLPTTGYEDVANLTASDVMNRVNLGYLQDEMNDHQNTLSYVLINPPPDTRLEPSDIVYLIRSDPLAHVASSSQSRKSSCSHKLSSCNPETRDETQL
Test: Whole-cell patch clamp of WT/Y796H KCNT1 channels expressed in CHO cells
Format: cell-based
Description: To replicate the heterozygous nature of KCNT1‐associated disorders and obtain channels comprising wild‐type (WT) and mutated subunits, a concatemeric approach was taken. To generate human KCNT1 concatemers, plasmids termed donor and recipient were generated from the pcDNA6‐KCNT1 construct used previously[16] and empty pcDNA6 V5/His6 vector (Invitrogen) using standard polymerase chain reaction (PCR) and cloning techniques. The insert of the donor construct comprised the KCNT1 coding sequence that lacked a start codon and preceded by bases encoding a […] linker. […] The recipient construct was generated by deleting the stop codon and introducing a unique XhoI site. Sequences containing disease mutation Y796H were subcloned into these constructs from a plasmid used previously.[16] All sequences generated by PCR were confirmed by Sanger sequencing (Genewiz, Takeley, UK). Finally, the concatemeric construct was generated by subcloning the XhoI/AgeI fragment from the donor plasmid, containing the in‐frame linker and complete subunit sequence into the same sites in the recipient plasmid. Recombination‐deficient competent Escherichia coli (E. coli) cells and 32°C incubation temperature were used to reduce the frequency of deletions between identical sequences in the plasmid, which was confirmed by restriction analysis. For other experiments, constructs with WT, G288S, R398Q, or R928C mutant forms of KCNT1 cDNA, tagged with YFP‐6His in the pCMV‐entry vectors, were described previously.[10]
The CHO cells were cultured in Dulbecco's modified Eagle's Medium (ThermoFisher, UK) supplemented with 10% (v/v) fetal bovine serum, 50 U/ml penicillin and 0.05 mg/ml streptomycin, and incubated at 37°C in 5% CO2 atmosphere. For whole cell recording of WT/Y796H KCNT1, CHO cells were transiently co‐transfected with concatemeric WT/Y796H and EYFP, as described previously.[29] For electrophysiological experiments, cells were plated onto borosilicate glass cover slips and used 2 to 4 days later. Human embryonic kidney 293T cells (HEK293T) were cultured in the same manner, but with medium supplemented with 2 mM L‐glutamine, and 1% (v/v) nonessential amino acids. For excised inside‐out recording of homomeric WT or mutant YFP‐tagged KCNT1, HEK293T cells plated on glass cover slips were transfected using Attractene Transfection Reagent (Qiagen, Germany) according to the manufacturer's instructions and used 2 to 3 days later.
Whole cell recordings from transiently transfected CHO cells were conducted at room temperature and analyzed as described previously.[29] The pipette (intracellular) solution contained, in mM, 100 K‐gluconate, 30 KCl, 10 Na‐gluconate, 29 glucose, 5 EGTA, and 10 HEPES, adjusted to pH 7.3 with KOH and the bath (extracellular) solution contained, in mM, 140 NaCl, 1 CaCl2, 5 KCl, 29 glucose, 10 HEPES, and 1 MgCl2, adjusted to pH 7.4 with NaOH. For current‐voltage and conductance‐voltage analysis of the concatemeric constructs, cells were held at −80 mV and 400 ms pulses were applied to voltages between −100 and 80 mV. Conductance values (G) with each voltage pulse (V) were obtained by dividing the peak steady‐state current by the driving force (command voltage minus the measured reversal potential). Conductance‐voltage data were fit by a Boltzmann function, G = (G max – G min)/(1 + e^(V‐V½)/k)) + G min, where G max and G min are the maximum and minimum conductance values, V ½ the half‐maximal activation voltage, and slope k. The liquid junction potential was calculated and was used to correct voltage values after data collection. Inhibition by drugs, which were obtained from commercial sources, was determined from currents evoked by 500 ms voltage ramps from −100 to 0 mV at 0.2 hertz (Hz) as described previously.[16] Initially, the drugs (10 mM in DMSO) were diluted to 10 μM in a bath solution and applied via gravity perfusion for 2 minutes, followed by at least a 2‐minute wash with drug‐free solution prior to addition of the next drug. […]

[1] = whole-cell patch clamp, CHO cells
[2] = whole-cell patch clamp, CHO cells, concentration-inhibition analysis, read-out: mean ± SEM IC50

## CCOc1nc2cccc(C(=O)OC(C)OC(=O)OC3CCCCC3)c2n1Cc1ccc(-c2ccccc2-c2nn[nH]n2)cc1 (stereo not shown) [Candesartan cilexetil, candesartan cilexetil]
[1]
  potency of concentration-dependent inhibition (in words): much less potent

## O=C(OCCN1CCN(c2cccc(C(F)(F)F)c2)CC1)c1ccccc1Nc1ccnc2cc(C(F)(F)F)ccc12 [antrafenine]
  IC50: 1.3 ± 0.2 µM
[1]
  inhibition of WT/Y796H KCNT1 channels at 10 μM: inhibited

## CC(C)c1c(C(=O)Nc2ccccc2)c(-c2ccccc2)c(-c2ccc(F)cc2)n1CC[C@@H](O)C[C@@H](O)CC(=O)O [atorvastatin]
[1]
  inhibition of WT/Y796H KCNT1 channels at 10 μM: inhibited
[2]
  IC50: 7.54 ± 0.99 µM

## CC(C)[C@@H](C)/C=C/[C@@H](C)[C@H]1CC[C@H]2/C(=C/C=C3\C[C@@H](O)CC[C@@H]3C)CCC[C@]12C [dihydrotachysterol]
[1]
  inhibition of WT/Y796H KCNT1 channels at 10 μM: did not exhibit inhibition

## CC(C)(C)NC(=O)[C@@H]1CN(Cc2cccnc2)CCN1C[C@@H](O)C[C@@H](Cc1ccccc1)C(=O)N[C@H]1c2ccccc2C[C@H]1O [indinavir]
[1]
  inhibition of WT/Y796H KCNT1 channels at 10 μM: did not exhibit inhibition

## CS(=O)(=O)c1cccc(C[C@H](NC(=O)c2c(Cl)cc3c(c2Cl)CCN(C(=O)c2ccc4ccoc4c2)C3)C(=O)O)c1 [lifitegrast]
[1]
  inhibition of WT/Y796H KCNT1 channels at 10 μM: did not exhibit inhibition

## Cc1c(O)cccc1C(=O)N[C@@H](CSc1ccccc1)[C@H](O)CN1C[C@H]2CCCC[C@H]2C[C@H]1C(=O)NC(C)(C)C [nelfinavir mesylate]
[1]
  inhibition of WT/Y796H KCNT1 channels at 10 μM: inhibited
[2]
  IC50: 2.86 ± 0.3 µM

## CNC(=O)c1cc(Oc2ccc(NC(=O)Nc3ccc(Cl)c(C(F)(F)F)c3)c(F)c2)ccn1 [regorafenib]
[1]
  inhibition of WT/Y796H KCNT1 channels at 10 μM: inhibited
[2]
  IC50: 10.3 ± 1.25 µM

## CC(C)N1CCN(c2ccc(OCC3COC(Cn4cncn4)(c4ccc(Cl)cc4Cl)O3)cc2)CC1 (stereo not shown) [terconazole]
[1]
  inhibition of WT/Y796H KCNT1 channels at 10 μM: did not exhibit inhibition
